What follows are compounds tested against T1, KRAS (G12D)-HiBit in AsPc-1-KRAS (G12D)-HiBit-KI cell (Homo sapiens, UniProt P01116, G12D) (assay: G12D HiBit assay). Settings: 24 hours compound treatment, absolute DC50, read-out: Average PHA DC50.
T1 construct: host or cells: AsPc-1-KRAS (G12D)-HiBit-KI cells (knock-in line)
Type: cell-based
Protocol: Day 1. Prepared the culture medium for AsPc-1-KRAS (G12D)-HiBit-KI cell (Pharmaron) using RPMI 1640 medium (Gibco, 11875093) with 10% FBS (Gibco, 10099141C) and 1% Penicillin-Streptomycin Liquid (Solarbio, P1400). Cultivated cells in T-75 flasks in a cell culture incubator (Thermo, Model: 371) at 37° C., 5% CO2. Allowed cells to reach approximately 80% confluence before splitting. Rinsed cultivated cells in T-75 flasks with 5 mL PBS (Solarbio, P1020-500). Aspirated off PBS, added 1.5 mL trypsin (Invitrogen, #25300), and incubated at 37° C. for approximately 5 minutes or until the cells detached. Inactivated trypsin by adding excessive serum containing medium. Harvested the cells from flask into cell culture medium and counted the cell number. Seeded AsPc-1-KRAS (G12D)-HiBit-KI cell into 384-well plate (Corning, 3570) (cell density: 5×10^3 cells/well in 50 μL medium) in RPMI 1640 medium and incubated overnight at 37° C. and 5% CO2.
Day 2. Test compounds were dissolved at 0.3 mM in DMSO (Solarbio, D8371) as stock solution. Transferred 45 μL of stock solution to a 384-well plate (Labcyte, 001-14555). Performed 3-fold, 10-points dilution via transferring 15 μL compound into 30 μL DMSO by using TECAN liquid handler (TECAN, Freedom EVO200). The compound plates were spin at room temperature at 1,000 RPM for 1 minute (Eppendorf, 5810R). Transferred 50 nL of diluted compounds from compound source plate into the cell plate by Echo (Labcyte, 550) to achieve final concentrations of 300 nM, 100 nM, 33.3 nM, 11.1 nM, 3.7 nM, 1.23 nM, 0.41 nM, 0.14 nM, 0.046 nM and 0.015 nM, then mixed the cell plate on a plate shaker (Yoning, WZ-4) for 15 seconds at 900 rpm. After compound treatment for 24 hours, removed the plate from incubators and equilibrated at room temperature for 15 minutes. Prepared the HiBit reagent (Promega, N3040) by mixing 10 mL of Nano-Glo®-HiBiT Lytic Buffer with 200 μL of Nano-Glo®-HiBiT Lytic Substrate and 100 μL of LgBiT Protein. Added 20 μL of HiBit reagent into each well of the cell plate and spun the plates at room temperature at 1,000 RPM for 1 minute. Then shook the plates at 600 RPM at room temperature for 20 minutes using a plate shaker (Yoning, WZ-4), and read the luminescence by EnVision (PerkinElmer, 2105-0020).
The inhibition activity was calculated using the following formula: HiBit-G12D level (%)=100%×[Luminescence(Sample)/Mean of Luminescence (HC)] where HC (high control) is obtained from cells treated with 0.1% DMSO only.
Absolute DC50 was calculated by fitting the curve using GraphPad Prism v8.0.2 (analyis 263): Y=Bottom+(100−Bottom)/(1+10^(Log AbsoluteIC50−X)*HillSlope+log((100−Bottom)/(50−Bottom)−1)))
The data are reported in Table 3, wherein “+++”=DC50 less than 100 nM, “++”=DC50 greater than or equal to 100 nM and less than 300 nM; “+”=DC50 greater than or equal to 300 nM.

T1 sequence (P01116 1-188 isoform P01116-2 G12D): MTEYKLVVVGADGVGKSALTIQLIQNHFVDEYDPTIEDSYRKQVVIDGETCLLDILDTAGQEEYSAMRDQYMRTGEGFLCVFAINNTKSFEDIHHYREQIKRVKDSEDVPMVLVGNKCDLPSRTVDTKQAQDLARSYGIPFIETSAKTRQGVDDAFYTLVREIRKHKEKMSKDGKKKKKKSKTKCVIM

SMILES	DC50
C#Cc1c(F)ccc2cccc(-c3ncc4c(N5CC6CCC(C5)N6)nc(OC[C@@]56CCCN5[C@H](COC(=O)N5CCC(C7CCN(Cc8ccc9c(c8)n(C)c(=O)n9C8CCC(=O)NC8=O)CC7)CC5)CC6)nc4c3F)c12 (stereo partly drawn) [Compound 55, [(3S,8S)-8-[[4-(3,8-Diazabicyclo[3.2.1]octan-3-yl)-7-(8-ethynyl-7-fluoro-1-naphthyl)-8-fluoro-pyrido[4,3-d]pyrimidin-2-yl]oxymethyl]-1,2,3,5,6,7-hexahydropyrrolizin-3-yl]methyl 4-[1-[[1-(2,6-dioxo-3-piperidyl)-3-methyl-2-oxo-benzimidazol-5-yl]methyl]-4-piperidyl]piperidine-1-carboxylate]	< 100 nM
C#Cc1c(F)ccc2cccc(-c3ncc4c(N5CC6CCC(C5)N6)nc(OC[C@@]56CCCN5[C@H](COC(=O)N5CCC(N7CCN(Cc8ccc9c(c8)n(C)c(=O)n9C8CCC(=O)NC8=O)CC7)CC5)CC6)nc4c3F)c12 (stereo partly drawn) [Compound 56, [(3S,8S)-8-[[4-(3,8-Diazabicyclo[3.2.1]octan-3-yl)-7-(8-ethynyl-7-fluoro-1-naphthyl)-8-fluoro-pyrido[4,3-d]pyrimidin-2-yl]oxymethyl]-1,2,3,5,6,7-hexahydropyrrolizin-3-yl]methyl 4-[4-[[1-(2,6-dioxo-3-piperidyl)-3-methyl-2-oxo-benzimidazol-5-yl]methyl]piperazin-1-yl]piperidine-1-carboxylate]	< 100 nM
C#Cc1c(F)ccc2cccc(-c3ncc4c(N5CC6CCC(C5)N6)nc(OC[C@@]56CCCN5[C@H](COC(=O)N5CCC(OCCCCCCc7cccc8c7n(C)c(=O)n8C7CCC(=O)NC7=O)CC5)CC6)nc4c3F)c12 (stereo partly drawn) [Compound 58, [(3S,8S)-8-[[4-(3,8-Diazabicyclo[3.2.1]octan-3-yl)-7-(8-ethynyl-7-fluoro-1-naphthyl)-8-fluoro-pyrido[4,3-d]pyrimidin-2-yl]oxymethyl]-1,2,3,5,6,7-hexahydropyrrolizin-3-yl]methyl 4-[6-[1-(2,6-dioxo-3-piperidyl)-3-methyl-2-oxo-benzimidazol-4-yl]hexoxy]piperidine-1-carboxylate]	< 100 nM
C#Cc1c(F)ccc2cccc(-c3ncc4c(N5CC6CCC(C5)N6)nc(OC[C@@]56CCCN5[C@H](COC(=O)N5CCC(OCCCCCCCc7cccc8c7n(C)c(=O)n8C7CCC(=O)NC7=O)CC5)CC6)nc4c3F)c12 (stereo partly drawn) [Compound 59]	< 100 nM
C#Cc1c(F)ccc2cccc(-c3ncc4c(N5CC6CCC(C5)N6)nc(OC[C@@]56CCCN5[C@H](COC(=O)N5CCC7(CCC(CCc8cccc9c8n(C)c(=O)n9C8CCC(=O)NC8=O)CC7)CC5)CC6)nc4c3F)c12 (stereo partly drawn) [Compound 60, [(3S,8S)-8-[[4-(3,8-Diazabicyclo[3.2.1]octan-3-yl)-7-(8-ethynyl-7-fluoro-1-naphthyl)-8-fluoro-pyrido[4,3-d]pyrimidin-2-yl]oxymethyl]-1,2,3,5,6,7-hexahydropyrrolizin-3-yl]methyl 9-[2-[1-(2,6-dioxo-3-piperidyl)-3-methyl-2-oxo-benzimidazol-4-yl]ethyl]-3-azaspiro[5.5]undecane-3-carboxylate]	100 to 300 nM
C#Cc1c(F)ccc2cccc(-c3ncc4c(N5CC6CCC(C5)N6)nc(OC[C@@]56CCCN5[C@H](COC(=O)N5CC7(CC(CCc8cccc9c8n(C)c(=O)n9C8CCC(=O)NC8=O)C7)C5)CC6)nc4c3F)c12 (stereo partly drawn) [Compound 61, [(3S,8S)-8-[[4-(3,8-diazabicyclo[3.2.1]octan-3-yl)-7-(8-ethynyl-7-fluoro-1-naphthyl)-8-fluoro-pyrido[4,3-d]pyrimidin-2-yl]oxymethyl]-1,2,3,5,6,7-hexahydropyrrolizin-3-yl]methyl 6-[2-[1-(2,6-dioxo-3-piperidyl)-3-methyl-2-oxo-benzimidazol-4-yl]ethyl]-2-azaspiro[3.3]heptane-2-carboxylate]	100 to 300 nM
C#Cc1c(F)ccc2cccc(-c3ncc4c(N5CC6CCC(C5)N6)nc(OC[C@@]56CCCN5[C@H](COC(=O)N5CCC(OCC7CCN(Cc8cccc9c8n(C)c(=O)n9C8CCC(=O)NC8=O)CC7)CC5)CC6)nc4c3F)c12 (stereo partly drawn) [Compound 62, [(3S,8S)-8-[[4-(3,8-Diazabicyclo[3.2.1]octan-3-yl)-7-(8-ethynyl-7-fluoro-1-naphthyl) 8-fluoro-pyrido[4,3-d]pyrimidin-2-yl]oxymethyl]-1,2,3,5,6,7-hexahydropyrrolizin-3-yl]methyl4-[[1-[[1-(2,6-dioxo-3-piperidyl)-3-methyl-2-oxo-benzimidazol-4-yl]methyl]-4-piperidyl]methoxy]piperidine-1-carboxylate]	< 100 nM
C#Cc1c(F)ccc2cccc(-c3ncc4c(N5CC6CCC(C5)N6)nc(OC[C@@]56CCCN5[C@H](COC(=O)N5CCC(COC7CN(Cc8cccc9c8n(C)c(=O)n9C8CCC(=O)NC8=O)C7)CC5)CC6)nc4c3F)c12 (stereo partly drawn) [Compound 63, [(3S,8S)-8-[[4-(3,8-diazabicyclo[3.2.1]octan-3-yl)-7-(8-ethynyl-7-fluoro-1-naphthyl)-8-fluoro-pyrido[4,3-d]pyrimidin-2-yl]oxymethyl]-1,2,3,5,6,7-hexahydropyrrolizin-3-yl]methyl4-[[1-[[1-(2,6-dioxo-3-piperidyl)-3-methyl-2-oxo-benzimidazol-4-yl]methyl]azetidin-3-yl]oxymethyl]piperidine-1-carboxylate]	100 to 300 nM
C#Cc1c(F)ccc2cccc(-c3ncc4c(N5CC6CCC(C5)N6)nc(OC[C@@]56CCCN5[C@H](COC(=O)N5CCN(C7CCN(Cc8cccc9c8n(C)c(=O)n9C8CCC(=O)NC8=O)CC7)CC5)CC6)nc4c3F)c12 (stereo partly drawn) [Compound 64, [(3S,8S)-8-[[4-(3,8-Diazabicyclo[3.2.1]octan-3-yl)-7-(8-ethynyl-7-fluoro-1-naphthyl)-8-fluoro-pyrido[4,3-d]pyrimidin-2-yl]oxymethyl]-1,2,3,5,6,7-hexahydropyrrolizin-3-yl]methyl 4-[1-[[1-(2,6-dioxo-3-piperidyl)-3-methyl-2-oxo-benzimidazol-4-yl]methyl]-4-piperidyl]piperazine-1-carboxylate]	< 100 nM

Next, values leading:

DC50	SMILES
100 to 300 nM	C#Cc1c(F)ccc2cccc(-c3ncc4c(N5CC6CCC(C5)N6)nc(OC[C@@]56CCCN5[C@H](COC(=O)N5CCC(N7CCC(Cc8cccc9c8n(C)c(=O)n9C8CCC(=O)NC8=O)CC7)CC5)CC6)nc4c3F)c12 (stereo partly drawn) [Compound 65, [(3S,8S)-8-[[4-(3,8-Diazabicyclo[3.2.1]octan-3-yl)-7-(8-ethynyl-7-fluoro-1-naphthyl)-8-fluoro-pyrido[4,3-d]pyrimidin-2-yl]oxymethyl]-1,2,3,5,6,7-hexahydropyrrolizin-3-yl]methyl 4-[4-[[1-(2,6-dioxo-3-piperidyl)-3-methyl-2-oxo-benzimidazol-4-yl]methyl]-1-piperidyl]piperidine-1-carboxylate]
< 100 nM	C#Cc1c(F)ccc2cccc(-c3ncc4c(N5CC6CCC(C5)N6)nc(OC[C@@]56CCCN5[C@H](COC(=O)N5CCC(N7CCC(Oc8cccc9c8n(C)c(=O)n9C8CCC(=O)NC8=O)CC7)CC5)CC6)nc4c3F)c12 (stereo partly drawn) [Compound 66]
< 100 nM	C#Cc1c(F)ccc2cccc(-c3ncc4c(N5CC6CCC(C5)N6)nc(OC[C@@]56CCCN5[C@H](COC(=O)N5CCC7(CC5)CC(CCc5ccc8c(c5)n(C)c(=O)n8C5CCC(=O)NC5=O)C7)CC6)nc4c3F)c12 (stereo partly drawn) [Compound 67]
< 100 nM	C#Cc1c(F)ccc2cccc(-c3ncc4c(N5CC6CCC(C5)N6)nc(OC[C@@]56CCCN5[C@H](COC(=O)N5CCC(COC7CCN(Cc8ccc9c(c8)n(C)c(=O)n9C8CCC(=O)NC8=O)CC7)CC5)CC6)nc4c3F)c12 (stereo partly drawn) [Compound 68]
< 100 nM	C#Cc1c(F)ccc2cccc(-c3ncc4c(N5CC6CCC(C5)N6)nc(OC[C@@]56CCCN5[C@H](COC(=O)N5CCC(CCC7CCN(Cc8ccc9c(c8)n(C)c(=O)n9C8CCC(=O)NC8=O)CC7)CC5)CC6)nc4c3F)c12 (stereo partly drawn) [Compound 69]
≥ 300 nM	C#Cc1c(F)ccc2cccc(-c3ncc4c(N5CC6CCC(C5)N6)nc(OC[C@@]56CCCN5[C@H](COC(=O)N5CCC(C7CCN(c8ccc9c(c8)n(C)c(=O)n9C8CCC(=O)NC8=O)CC7)CC5)CC6)nc4c3F)c12 (stereo partly drawn) [Compound 70]
